We go through four molecules from US11647993B2, “Oral fluid collector” (Research Triangle Institute, priority 2017, dated 2023).

For data set [1] the following is noted: tetrahydrate soluble in hot water; cited from earlier work.
The nature of data set [2]: Stability of BZE in matrices over pH. The format is physicochemical. To be noted: most matrices, broad range of pH values. From the text: Based on the above discussion, the stabilization of parent cocaine in a matrix such as oral fluid, which contains esterases possibly derived from crevicular fluid, is challenging unless appropriate buffering at a pH where parent cocaine is stable is employed.

For data set [3] the following is noted: aqueous solution (cocaine); labile esters (heroin, 6-AM); cited from earlier work.
The conditions of data set [4]: two collection devices, cited from earlier work.
The conditions of data set [5]: oral fluid, over 14 days, cited from earlier work.
A further data set is described as follows: pH of greatest stability. The conditions noted are these: parent THC by itself.
The nature of data set [6]: Stability of parent THC spiked into neat human oral fluid, with or without the reagent component. The format is physicochemical.

Read-outs that look alike come from different tables or passages of the source.

As to `CN1[C@H]2CC[C@@H]1[C@@H](C(=O)O)[C@@H](OC(=O)c1ccccc1)C2` [BZE, benzoylecgonine], the “water solubility” value in data set [1] is on record as “considerable water solubility”. The stability result in data set [2] was “stable”.

For the molecule `CC(=O)Oc1ccc2c3c1O[C@H]1[C@@H](OC(C)=O)C=C[C@H]4[C@@H](C2)N(C)CC[C@@]341` [heroin, diacetylmorphine], in data set [3], the “pH of greatest stability / stabilization” value was roughly 5.0.

On to `COC(=O)[C@H]1[C@@H](OC(=O)c2ccccc2)C[C@@H]2CC[C@H]1N2C` [cocaine], for which the “pH of greatest stability / stabilization” value in data set [3] is roughly 5. Further, the figures for the “cocaine degraded to BZE” value in data set [4] (within 48 hours) and in data set [4] (within 72 hours) were 26% and 41%, respectively.

As to `CCCCCc1cc(O)c2c(c1)OC(C)(C)[C@@H]1CCC(C)=C[C@@H]21` [THC, Δ^9-tetrahydrocannabinol], the “losses of THC” value in data set [5] (in the dark at room temperature) is listed as 20%; in data set [5] (under fluorescent lights), “greater than 50%”. Also, the “pH at which most stable” value in “pH of greatest stability” is listed as roughly 7.5. For the same molecule, the “loss of THC” value in data set [6] is recorded as “substantial loss”.
